The results in this text go back to patent US9062061B2, “Compound having PARP inhibitory activity” (SANTEN PHARMACEUTICAL CO., LTD., priority 2011, dated 2015).

The target of the assay is T1, human recombinant PARP1 (Homo sapiens, UniProt P09874).
T1 construct: purchased Trevigen 4677-096-K
T1 sequence (P09874 whole entry): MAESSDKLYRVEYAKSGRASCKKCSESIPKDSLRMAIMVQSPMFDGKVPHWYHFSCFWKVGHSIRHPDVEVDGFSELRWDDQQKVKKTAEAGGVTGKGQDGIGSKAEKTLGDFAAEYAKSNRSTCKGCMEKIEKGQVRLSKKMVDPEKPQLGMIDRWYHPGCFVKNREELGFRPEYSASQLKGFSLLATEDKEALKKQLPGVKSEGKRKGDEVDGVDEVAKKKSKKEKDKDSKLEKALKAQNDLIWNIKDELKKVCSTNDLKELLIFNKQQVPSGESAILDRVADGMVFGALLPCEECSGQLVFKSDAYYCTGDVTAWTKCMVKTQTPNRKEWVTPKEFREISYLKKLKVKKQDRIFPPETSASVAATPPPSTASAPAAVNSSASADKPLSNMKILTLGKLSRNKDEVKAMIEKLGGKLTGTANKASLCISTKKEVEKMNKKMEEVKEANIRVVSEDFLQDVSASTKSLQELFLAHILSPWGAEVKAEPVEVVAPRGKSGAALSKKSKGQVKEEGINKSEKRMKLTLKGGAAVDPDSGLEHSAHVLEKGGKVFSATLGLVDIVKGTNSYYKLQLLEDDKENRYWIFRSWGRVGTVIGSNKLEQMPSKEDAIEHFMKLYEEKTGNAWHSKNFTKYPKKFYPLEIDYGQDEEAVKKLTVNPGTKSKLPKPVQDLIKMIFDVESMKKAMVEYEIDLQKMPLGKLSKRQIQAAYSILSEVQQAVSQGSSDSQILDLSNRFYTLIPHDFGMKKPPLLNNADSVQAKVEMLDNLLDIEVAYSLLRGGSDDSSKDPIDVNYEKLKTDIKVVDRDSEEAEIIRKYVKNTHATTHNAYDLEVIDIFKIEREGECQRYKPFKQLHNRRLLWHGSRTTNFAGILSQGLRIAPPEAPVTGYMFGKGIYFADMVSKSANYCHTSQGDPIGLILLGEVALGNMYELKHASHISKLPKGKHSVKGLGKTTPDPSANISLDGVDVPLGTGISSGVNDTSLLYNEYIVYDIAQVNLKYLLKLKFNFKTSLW
The experiment in a line: PARP inhibitory activity measurement test (Universal Colorimetric PARP Assay kit, Trevigen). Type of assay: biochemical. To be noted: compound concentration: 10 μM, read-out: PARP1 inhibition rate (%). The procedure:
For evaluating PARP inhibitory activity of the present compound, inhibitory activity of each test compound against human recombinant PARP 1 was measured using Universal Colorimetric PARP Assay kit with Histone-Coated Strip Wells (Cat No.: 4677-096-K) available from Trevigen. The test was conducted according to the procedure in the instruction attached to this kit. The concrete operation will be described below.
After dissolving the test compound in dimethyl sulfoxide, the solution was diluted with a PARP buffer attached to the kit to prepare a 50 μM test compound solution.
In each well of a histone-coated 96-well plate, 10 μL of the test compound solution (50 μM), 15 μL of human recombinant PARP1 (33.3 Unit/mL) and 25 μL of PARP cocktail (containing activated DNA and biotinated NAD) were added, and incubated at room temperature for 1 hour (final reaction amount: 50 μL). Each well was washed twice with 200 μL of 0.1% Triton-X-containing Dulbecco's phosphate buffer, and further washed twice with 200 μL of Dulbecco's phosphate buffer, and then 50 μL of Strep-HRP was added, followed by incubation at room temperature for 1 hour. Each well was washed twice with 200 μL of 0.1% Triton-X-containing Dulbecco's phosphate buffer, and further washed twice with 200 μL of Dulbecco's phosphate buffer, and then 50 μL of TACS-Sapphire coloriometric substrate was added, followed by incubation at room temperature for 15 minutes. After stopping the reaction by adding 50 μL of 0.2 M HCl, absorbance at 450 nm (Abs 450) was measured by a microplate reader. The number of examples in each group was 1 to 2.
Using a well into which dimethyl sulfoxide and a PARP buffer were added in place of the test compound solution and human recombinant PARP1, the above operation was conducted as a negative control.
Using a well into which a PARP buffer containing dimethyl sulfoxide was added in place of the test compound solution, the above operation was conducted as a positive control.
PARP1 inhibition rate (%) was calculated according to the following Formula 1. PARP1 inhibition rate(%)=(AbsB−AbsX)/(AbsB−AbsA)×100 [Formula 1]
AbsA: absorbance of negative control (Abs 450)
AbsB: absorbance of positive control (Abs 450)
AbsX: absorbance of test compound-treated group (Abs 450)
As a reminder, the inhibition is the share of the control response that was lost under treatment. For `O=C(c1cc2[nH]c(=O)c3ccccc3n2c1)N1CCN(c2ccc(F)cc2)CC1` [Compound 1-1, 2-[4-(4-Fluorophenyl)piperazine-1-carbonyl]pyrrolo[1,2-a]quinazolin-5(4H)-one], the inhibition at 10 µM worked out at 90%. On to `O=C(c1cc2[nH]c(=O)c3ccccc3n2c1)N1CCN(Cc2ccc(Cl)cc2)CC1` [Compound 1-2, 2-[4-(4-Chlorobenzyl)piperazine-1-carbonyl]pyrrolo[1,2-a]quinazolin-5(4H)-one], for which the inhibition at 10 µM is 55%.

On to `O=C(c1cc2[nH]c(=O)c3ccccc3n2c1)N1CCN(c2nccs2)CC1` [Compound 1-3, 2-[4-(Thiazol-2-yl)piperazine-1-carbonyl]pyrrolo[1,2-a]quinazolin-5(4H)-one], for which the inhibition at 10 µM was 100%.

As to `O=C(c1cc2[nH]c(=O)c3ccccc3n2c1)N1CCN(c2ccccc2)CC1` [Compound 1-4, 2-(4-Phenylpiperazine-1-carbonyl)pyrrolo[1,2-a]quinazolin-5(4H)-one], the inhibition at 10 µM was found to be 99%. The value for `O=C(c1cc2[nH]c(=O)c3ccccc3n2c1)N1CCC(c2ccccc2)CC1` [Compound 1-5, 2-(4-Phenylpiperidine-1-carbonyl)pyrrolo[1,2-a]quinazolin-5(4H)-one] was 71%; that for `O=C(c1cc2[nH]c(=O)c3ccccc3n2c1)N1CC=C(c2ccccc2)CC1` [Compound 1-6, 2-(4-Phenyl-1,2,3,6-tetrahydropyridine-1-carbonyl)pyrrolo[1,2-a]quinazolin-5(4H)-one] was 23%; that for `O=C(c1cc2[nH]c(=O)c3ccccc3n2c1)N1CC=C(c2ccc(Cl)cc2)CC1` [Compound 1-7, 2-[4-(4-Chlorophenyl)-1,2,3,6-tetrahydropyridine-1-carbonyl]pyrrolo[1,2-a]quinazolin-5(4H)-one] was 44%. The value for `O=C(c1cc2[nH]c(=O)c3ccccc3n2c1)N1CC=C(c2ccc(F)cc2)CC1` [Compound 1-8, 2-[4-(4-Fluorophenyl)-1,2,3,6-tetrahydropyridine-1-carbonyl]pyrrolo[1,2-a]quinazolin-5(4H)-one] was 51%.

For the compound `CN1CCN(C(=O)c2cc3[nH]c(=O)c4ccccc4n3c2)CC1` [Compound 1-10, 2-(4-Methylpiperazine-1-carbonyl)pyrrolo[1,2-a]quinazolin-5(4H)-one], the inhibition at 10 µM came to 68%. In the case of `O=C(c1cc2[nH]c(=O)c3ccccc3n2c1)N1CCN(Cc2ccccc2)CC1` [Compound 1-11, 2-(4-Benzylpiperazine-1-carbonyl)pyrrolo[1,2-a]quinazolin-5(4H)-one] it was 86%; in that of `O=C(c1cc2[nH]c(=O)c3ccccc3n2c1)N1CCN(c2ccc(Cl)cc2)CC1` [Compound 1-12, 2-[4-(4-Chlorophenyl)piperazine-1-carbonyl]pyrrolo[1,2-a]quinazolin-5(4H)-one], 64%. The value for `O=C(c1cc2[nH]c(=O)c3ccccc3n2c1)N1CCN(Cc2ccc(F)cc2)CC1` [Compound 1-13, 2-[4-(4-Fluorobenzyl)piperazine-1-carbonyl]pyrrolo[1,2-a]quinazolin-5(4H)-one] was 67%; that for `O=C(c1cc2[nH]c(=O)c3ccccc3n2c1)N1CCC(c2ccc(F)cc2)CC1` [Compound 1-14, 2-[4-(4-Fluorophenyl)piperidine-1-carbonyl]pyrrolo[1,2-a]quinazolin-5(4H)-one] was 44%. Regarding `O=C(c1cc2[nH]c(=O)c3ccccc3n2c1)N1CCN(c2cccc(F)c2)CC1` [Compound 1-15, 2-[4-(3-Fluorophenyl)piperazine-1-carbonyl]pyrrolo[1,2-a]quinazolin-5(4H)-one], the inhibition at 10 µM stood at 74%. The value for `O=C(c1cc2[nH]c(=O)c3ccccc3n2c1)N1CCc2ccccc2C1` [Compound 1-21, 2-(3,4-Dihydroisoquinoline-2(1H)-carbonyl)pyrrolo[1,2-a]quinazolin-5(4H)-one] was 84%. For the compound `CC(C)(C)OC(=O)N1CCCN(C(=O)c2cc3[nH]c(=O)c4ccccc4n3c2)CC1` [Compound 1-47, 2-[4-(tert-Butoxycarbonyl)homopiperazine-1-carbonyl]pyrrolo[1,2-a]quinazolin-5(4H)-one], the inhibition at 10 µM turned out to be 93%.

In the case of `O=C(Nc1ccccc1)c1cc2[nH]c(=O)c3ccccc3n2c1` [Compound 1-49, 2-(Phenylaminocarbonyl)pyrrolo[1,2-a]quinazolin-5(4H)-one], the inhibition at 10 µM came out at 36%.

As for `CN1CCCN(C(=O)c2cc3[nH]c(=O)c4ccccc4n3c2)CC1` [Compound 1-50, 2-(4-Methylhomopiperazine-1-carbonyl)pyrrolo[1,2-a]quinazolin-5(4H)-one], the inhibition at 10 µM was determined as 92%. Regarding `CN(C)CCNC(=O)c1cc2[nH]c(=O)c3ccccc3n2c1` [Compound 1-51, 2-[(2-Dimethylaminoethyl)aminocarbonyl]pyrrolo[1,2-a]quinazolin-5(4H)-one], the inhibition at 10 µM was 92%. Take `O=C(NCc1ccncc1)c1cc2[nH]c(=O)c3ccccc3n2c1` [Compound 1-52, 2-[(Pyridin-4-ylmethyl)aminocarbonyl]pyrrolo[1,2-a]quinazolin-5(4H)-one]: the inhibition at 10 µM came out at 94%. In the case of `O=C(NCCN1CCOCC1)c1cc2[nH]c(=O)c3ccccc3n2c1` [Compound 1-53, 2-[2-(Morpholin-4-ylethyl)aminocarbonyl]pyrrolo[1,2-a]quinazolin-5(4H)-one] it was 96%; in that of `O=C(NCc1ccccc1)c1cc2[nH]c(=O)c3ccccc3n2c1` [Compound 1-54, 2-(Benzylaminocarbonyl)pyrrolo[1,2-a]quinazolin-5(4H)-one], 81%; in that of `O=C(NCCc1ccccc1)c1cc2[nH]c(=O)c3ccccc3n2c1` [Compound 1-55, 2-(2-Phenylethylaminocarbonyl)pyrrolo[1,2-a]quinazolin-5(4H)-one], 81%. Take `O=C(NCCCc1ccccc1)c1cc2[nH]c(=O)c3ccccc3n2c1` [Compound 1-56, 2-(3-Phenylpropylaminocarbonyl)pyrrolo[1,2-a]quinazolin-5(4H)-one]: the inhibition at 10 µM was determined as 83%. For `O=c1[nH]c2cc(CN3CCN(Cc4ccc(Cl)cc4)CC3)cn2c2ccccc12` [Compound 2-2, 2-[4-(4-Chlorobenzyl)piperazin-1-ylmethyl]pyrrolo[1,2-a]quinazolin-5(4H)-one], the inhibition at 10 µM was 78%.

For the compound `O=c1[nH]c2cc(CN3CCN(c4nccs4)CC3)cn2c2ccccc12` [Compound 2-3, 2-[4-(Thiazol-2-yl)piperazin-1-ylmethyl]pyrrolo[1,2-a]quinazolin-5(4H)-one], the inhibition at 10 µM is 99%.

As to `O=c1[nH]c2cc(CN3CCN(c4ccccc4)CC3)cn2c2ccccc12` [Compound 2-4, 2-(4-Phenylpiperazin-1-ylmethyl)pyrrolo[1,2-a]quinazolin-5(4H)-one], the inhibition at 10 µM was found to be 100%. In the case of `O=c1[nH]c2cc(CN3CC=C(c4ccccc4)CC3)cn2c2ccccc12` [Compound 2-6, 2-(4-Phenyl-1,2,3,6-tetrahydropyridin-1-ylmethyl)pyrrolo[1,2-a]quinazolin-5(4H)-one], the inhibition at 10 µM came to 100%. Regarding `CN1CCN(Cc2cc3[nH]c(=O)c4ccccc4n3c2)CC1` [Compound 2-10, 2-(4-Methylpiperazin-1-ylmethyl)pyrrolo[1,2-a]quinazolin-5(4H)-one], the inhibition at 10 µM stood at 98%. For `O=c1[nH]c2cc(CN3CCN(Cc4ccccc4)CC3)cn2c2ccccc12` [Compound 2-11, 2-(4-Benzylpiperazin-1-ylmethyl)pyrrolo[1,2-a]quinazolin-5(4H)-one], the inhibition at 10 µM amounted to 99%. The value for `O=c1[nH]c2cc(CN3CCN(Cc4ccc(F)cc4)CC3)cn2c2ccccc12` [Compound 2-13, 2-[4-(4-Fluorobenzyl)piperazin-1-ylmethyl]pyrrolo[1,2-a]quinazolin-5(4H)-one] was 96%.

With `O=c1[nH]c2cc(CN3CCN(c4cccc(F)c4)CC3)cn2c2ccccc12` [Compound 2-15, 2-[4-(3-Fluorophenyl)piperazin-1-ylmethyl]pyrrolo[1,2-a]quinazolin-5(4H)-one], the inhibition at 10 µM amounted to 98%. For `O=c1[nH]c2cc(CN3CCN(c4cccnc4)CC3)cn2c2ccccc12` [Compound 2-18, 2-[4-(Pyridine-3-yl)piperazin-1-ylmethyl]pyrrolo[1,2-a]quinazolin-5(4H)-one], the inhibition at 10 µM was determined as 95%. The value for `CN(CCCc1ccccc1)Cc1cc2[nH]c(=O)c3ccccc3n2c1` [Compound 2-19, 2-[N-Methyl-N-(3-phenylpropyl)aminomethyl]pyrrolo[1,2-a]quinazolin-5(4H)-one] was 93%.
